The text below walks through data of US9896441B2 (Lycera Corporation, priority 2014, dated 2018).

One test addresses T1, Gal4-RORγ-LBD (Homo sapiens, UniProt P51449).
T1 construct: expressed in transfected cells
T1 sequence (P51449 269-508 limits assumed): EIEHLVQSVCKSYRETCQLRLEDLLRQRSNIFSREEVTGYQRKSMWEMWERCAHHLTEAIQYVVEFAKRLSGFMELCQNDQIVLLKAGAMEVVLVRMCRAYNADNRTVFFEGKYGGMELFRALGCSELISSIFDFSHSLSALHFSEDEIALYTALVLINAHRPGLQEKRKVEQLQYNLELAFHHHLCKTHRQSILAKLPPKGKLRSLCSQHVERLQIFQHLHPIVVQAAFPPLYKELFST
Put plainly: Gal4-RORγ Luciferase Reporter Assay in HEK-293T Cells. In kind it is cell-based. As to conditions: HEK-293 cells; for Gal4-RORγ Assay Max Response: maximum response. The essentials: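 HEK-293 cells were co-transfected with Gal4-RORγ-LBD and a Gal4-luciferase reporter, then exposed overnight at 37 °C to compounds with […] ursolic acid present (0.2% DMSO). Luminescence was read with One-Glo after 10 min at RT, untreated signal was set as 100, and Max Response was taken as the upper plateau of a 4-parameter logistic fit.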
A general note: A reporter such as luciferase makes a cellular process visible.

The next test deals with T2, RORγ-LBD (Homo sapiens, UniProt P51449).
T2 construct: made in house; host or cells: SF9 cells (baculovirus); used as diluted lysate
T2 sequence (P51449 269-508 limits assumed): T1 sequence (P51449 269-508 limits assumed)
Put plainly: RORγ-Ligand Binding Domain (LBD) TR-FRET Assay.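 As to TR-FRET Assay Max Response: 665/615 nm signal ratio set to 100 without ursolic acid or test compound.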 It is filed as biochemical. As to conditions: for TR-FRET Assay Max Response: maximum response. In outline: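 SF9 lysate containing His-RORγ-LBD, ~3 nM final; coactivator peptide biotin-SRC1 LXXLL, 200 nM final; ursolic acid 2 μM final; DMSO 1% final; Tris pH 7.0 buffer with KCl, EDTA, DTT, BSA. TR-FRET format.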
(In general: TR-FRET usually uses a lanthanide donor and a delayed reading to cut background.)

Setting [1] is: luciferase reporter, in presence of ursolic acid.
The mark [2] stands for this setting: luciferase reporter, with ursolic acid.

A value given as a limit tells only on which side of the number the result lay.

The EC50 is the concentration giving half of the maximal effect. With `COc1cc(S(=O)(=O)N2C[C@H](CC(C)(C)C(=O)O)Cc3ccc(/C=C(\C)c4c(F)cccc4Cl)cc32)ccc1F` [Example 154C, (S,E)-3-(7-(2-(2-chloro-6-fluorophenyl)prop-1-en-1-yl)-1-((4-fluoro-3-methoxyphenyl)sulfonyl)-1,2,3,4-tetrahydroquinolin-3-yl)-2,2-dimethylpropanoic acid], at Gal4-RORγ-LBD (setting [1]), the concentration for a half-maximal effect (EC50) was 0.5 to 5 µM and the “Gal4-RORγ Assay Max Response” value is listed as “** (a value in the range of greater than 90 to 150)”. On RORγ-LBD (RORγ-LBD TR-FRET assay), the EC50 is < 0.5 µM and the “TR-FRET Assay Max Response” value is given as “** (a value in the range of greater than 90 to 150)”.

For `CCOc1nn(CC)cc1S(=O)(=O)N1C[C@H](CCC(=O)O)Oc2ccc(/C=C/c3cccnc3)cc21` [Example 89I, (S,E)-3-(4-((3-ethoxy-1-ethyl-1H-pyrazol-4-yl)sulfonyl)-6-(2-(pyridin-3-yl)vinyl)-3,4-dihydro-2H-benzo[b][1,4]oxazin-2-yl)propanoic acid], the concentration giving a half-maximal response (EC50) on Gal4-RORγ-LBD (setting [2]) and on RORγ-LBD (RORγ-LBD TR-FRET) was > 10 µM throughout.

In the case of `CC(=O)N[C@@H]1Cc2ccc(/C=C(\C)c3c(F)cccc3Cl)cc2N(S(=O)(=O)c2cccc(C(F)(F)F)c2)C1` [Example 165, (R,E)-N-(7-(2-(2-Chloro-6-fluorophenyl)prop-1-en-1-yl)-1-((3-(trifluoromethyl)phenyl)sulfonyl)-1,2,3,4-tetrahydroquinolin-3-yl)acetamide], on Gal4-RORγ-LBD (setting [1]), the EC50 was < 0.5 µM and the “Gal4-RORγ Assay Max Response” value is “* (a value in the range of 30 to 90)”. Moreover, at RORγ-LBD (RORγ-LBD TR-FRET assay), the EC50 was < 0.5 µM and the “TR-FRET Assay Max Response” value is listed as “*** (a value in the range of greater than 150 to 200)”.

Consider `CCOc1nn(CC)cc1S(=O)(=O)N1C[C@H](CCC(=O)OC)Oc2ccc(/C=C/c3ccc(Cl)cc3)cc21` [Example 89DA, methyl (S,E)-3-(6-(4-chlorostyryl)-4-((3-ethoxy-1-ethyl-1H-pyrazol-4-yl)sulfonyl)-3,4-dihydro-2H-benzo[b][1,4]oxazin-2-yl)propanoate], for which the EC50 on Gal4-RORγ-LBD (setting [2]) and at RORγ-LBD (RORγ-LBD TR-FRET) was > 10 µM each time.

Turning to `CCOc1nn(CC)cc1S(=O)(=O)N1C[C@H](CCC(=O)O)Oc2ccc(/C=C/c3ncccc3F)cc21` [Example 89W, (S,E)-3-(4-((3-ethoxy-1-ethyl-1H-pyrazol-4-yl)sulfonyl)-6-(2-(3-fluoropyridin-2-yl)vinyl)-3,4-dihydro-2H-benzo[b][1,4]-oxazin-2-yl)propanoic acid], the 50% effective concentration (EC50) at Gal4-RORγ-LBD (setting [2]) is > 10 µM; at RORγ-LBD (RORγ-LBD TR-FRET), 5 to 10 µM.

With `CCOc1nn(CC)cc1S(=O)(=O)N1C[C@H](CCC(=O)O)Oc2ccc(/C=C/c3cccs3)cc21` [Example 89O, (S,E)-3-(4-((3-ethoxy-1-ethyl-1H-pyrazol-4-yl)sulfonyl)-6-(2-(thiophen-2-yl)vinyl)-3,4-dihydro-2H-benzo[b][1,4]oxazin-2-yl)propanoic acid], the EC50 at Gal4-RORγ-LBD (setting [2]) is > 10 µM; on RORγ-LBD (RORγ-LBD TR-FRET), < 0.5 µM.

With `COc1cc(S(=O)(=O)N2C[C@H](CC(C)(C)C(=O)O)Cc3ccc(/C=C/c4c(F)cccc4Cl)cc32)ccc1F` [Example 154A], on Gal4-RORγ-LBD (setting [1]), the EC50 is < 0.5 µM and the “Gal4-RORγ Assay Max Response” value is “* (a value in the range of 30 to 90)”. On RORγ-LBD (RORγ-LBD TR-FRET assay), the EC50 was < 0.5 µM and the “TR-FRET Assay Max Response” value is reported as “** (a value in the range of greater than 90 to 150)”.

As for `COC(=O)CC[C@H]1CN(S(=O)(=O)c2cccc(C(F)(F)F)c2)c2cc(/C=C(\C)c3ccccc3C(F)(F)F)ccc2O1` [Example 86AH, (S,E)-methyl 3-(6-(2-(2-(trifluoromethyl)phenyl)prop-1-en-1-yl)-4-((3-(trifluoromethyl)phenyl)-sulfonyl)-3,4-dihydro-2H-benzo[b][1,4]oxazin-2-yl)propanoate], the figures for the concentration for a half-maximal effect (EC50) on Gal4-RORγ-LBD (setting [2]) and at RORγ-LBD (RORγ-LBD TR-FRET) were 0.5 to 5 µM and < 0.5 µM, respectively.

Regarding `CCOc1sc(CC)nc1S(=O)(=O)N1C[C@H](CCC(=O)OC)Oc2ccc(/C=C(\C)c3c(F)cccc3Cl)cc21` [Example 72, Methyl (S,E)-3-(6-(2-(2-chloro-6-fluorophenyl)prop-1-en-1-yl)-4-((5-ethoxy-2-ethylthiazol-4-yl)sulfonyl)-3,4-dihydro-2H-benzo[b][1,4]oxazin-2-yl)propanoate], the EC50 on Gal4-RORγ-LBD (setting [2]) and on RORγ-LBD (RORγ-LBD TR-FRET) was < 0.5 µM in each case.

With `C/C(=C\c1ccc2c(c1)N(S(=O)(=O)c1cccc(C(F)(F)F)c1)C[C@H](CCC(=O)N(C)CCC(=O)O)O2)c1c(F)cccc1Cl` [Example 129Q, (S,E)-3-(3-(6-(2-(2-chloro-6-fluorophenyl)prop-1-en-1-yl)-4-((3-(trifluoromethyl)-phenyl)sulfonyl)-3,4-dihydro-2H-benzo[b][1,4]-oxazin-2-yl)-N-methyl-propanamido)-propanoic acid], the EC50 on Gal4-RORγ-LBD (ursolic acid present, luciferase readout) is < 0.5 µM; at RORγ-LBD (with 2 μM ursolic acid (RORγ antagonist), highest test concentration 10 μM), < 0.5 µM.

As to `COC(=O)CC[C@H]1CN(S(=O)(=O)c2cccc(C(C)(F)F)c2)c2cc(/C=C/c3c(Cl)cccc3C(F)(F)F)ccc2O1` [Example 83, Methyl (S,E)-3-(6-(2-chloro-6-(trifluoromethyl)styryl)-4-((3-(1,1-difluoroethyl)phenyl)sulfonyl)-3,4-dihydro-2H-benzo[b][1,4]oxazin-2-yl)propanoate], the values for the EC50 on Gal4-RORγ-LBD (setting [2]) and on RORγ-LBD (RORγ-LBD TR-FRET) were 0.5 to 5 µM and < 0.5 µM, respectively.

As to `COC(=O)CCC1CC(S(=O)(=O)c2cccc(C(F)(F)F)c2)c2cc(/C=C(\C)c3c(F)cccc3Cl)ccc2O1` (stereo not drawn) [Example 186H, methyl (E)-3-(6-(2-(2-chloro-6-fluorophenyl)prop-1-en-1-yl)-4-((3-(trifluoromethyl)phenyl)-sulfonyl)chroman-2-yl)propanoate], at Gal4-RORγ-LBD (setting [1]), the EC50 was < 0.5 µM and the “Gal4-RORγ Assay Max Response” value was “** (a value in the range of greater than 90 to 150)”. In addition, at RORγ-LBD (RORγ-LBD TR-FRET assay), the EC50 is < 0.5 µM and the “TR-FRET Assay Max Response” value is listed as “*** (a value in the range of greater than 150 to 200)”.

Turning to `C/C(=C\c1ccc2c(c1)N(S(=O)(=O)c1cccc(C(F)(F)F)c1)C[C@H](CCNC(=O)OC(C)(C)C)O2)c1c(F)cccc1Cl` [Example 110, tert-Butyl (S,E)-(2-(6-(2-(2-chloro-6-fluorophenyl)prop-1-en-1-yl)-4-((3-(trifluoromethyl)phenyl)sulfonyl)-3,4-dihydro-2H-benzo[b][1,4]oxazin-2-yl)ethyl)carbamate], on Gal4-RORγ-LBD (setting [1]), the EC50 was 0.5 to 5 µM and the “Gal4-RORγ Assay Max Response” value was “** (a value in the range of greater than 90 to 150)”. For the same molecule, on RORγ-LBD (RORγ-LBD TR-FRET assay), the 50% effective concentration (EC50) is < 0.5 µM and the “TR-FRET Assay Max Response” value was “*** (a value in the range of greater than 150 to 200)”.

On to `C/C(=C\c1ccc2c(c1F)N(S(=O)(=O)c1cccc(OC(F)F)c1)C[C@H](CCC(=O)O)O2)c1c(F)cccc1Cl` [Example 64, (S,E)-3-(6-(2-(2-Chloro-6-fluorophenyl)prop-1-en-1-yl)-4-((3-(difluoromethoxy)phenyl)sulfonyl)-5-fluoro-3,4-dihydro-2H-benzo[b][1,4]oxazin-2-yl)propanoic acid], for which the concentration for a half-maximal effect (EC50) on Gal4-RORγ-LBD (setting [2]) was 0.5 to 5 µM; on RORγ-LBD (RORγ-LBD TR-FRET), < 0.5 µM.

For the molecule `COC(=O)CC[C@H]1CN(S(=O)(=O)c2cncc(C(F)(F)F)c2)c2cc(/C=C(\C)c3c(F)cccc3Cl)ccc2O1` [Example 74, Methyl (S,E)-3-(6-(2-(2-chloro-6-fluorophenyl)prop-1-en-1-yl)-4-((5-(trifluoromethyl)pyridin-3-yl)sulfonyl)-3,4-dihydro-2H-benzo[b][1,4]oxazin-2-yl)propanoate], the concentration giving a half-maximal response (EC50) on Gal4-RORγ-LBD (setting [2]) is 0.5 to 5 µM; at RORγ-LBD (RORγ-LBD TR-FRET), < 0.5 µM.

Regarding `C/C(=C\c1ccc2c(c1)N(S(=O)(=O)c1cccc(C(F)(F)F)c1)C[C@H](CCCN1CCS(=O)(=O)CC1)O2)c1c(F)cccc1Cl` [Example 119H, (S,E)-4-(3-(6-(2-(2-chloro-6-fluorophenyl)prop-1-en-1-yl)-4-((3-(trifluoromethyl)-phenyl)sulfonyl)-3,4-dihydro-2H-benzo[b][1,4]oxazin-2-yl)propyl)thiomorpholine 1,1-dioxide], on Gal4-RORγ-LBD (setting [1]), the 50% effective concentration (EC50) was < 0.5 µM and the “Gal4-RORγ Assay Max Response” value was “** (a value in the range of greater than 90 to 150)”. In addition, at RORγ-LBD (RORγ-LBD TR-FRET assay), the EC50 is < 0.5 µM and the “TR-FRET Assay Max Response” value is listed as “*** (a value in the range of greater than 150 to 200)”.

With `CCOc1ncc(C(F)(F)F)cc1S(=O)(=O)N1C[C@H](CCC(=O)OC)Oc2ccc(/C=C/c3c(F)cccc3Cl)cc21` [Example 89DV, methyl (S,E)-3-(6-(2-chloro-6-fluorostyryl)-4-((2-ethoxy-5-(trifluoromethyl)pyridin-3-yl)sulfonyl)-3,4-dihydro-2H-benzo[b][1,4]oxazin-2-yl)propanoate], the EC50 on Gal4-RORγ-LBD (setting [2]) is 0.5 to 5 µM; on RORγ-LBD (RORγ-LBD TR-FRET), < 0.5 µM.

With `COC(=O)CC[C@H]1CN(S(=O)(=O)c2cccc(C(F)(F)F)c2)c2cc(/C=C(\C)c3ccccc3C)ccc2O1` [Example 86AL, (S,E)-methyl 3-(6-(2-(o-tolyl)prop-1-en-1-yl)-4-((3-(trifluoromethyl)-phenyl)sulfonyl)-3,4-dihydro-2H-benzo[b][1,4]oxazin-2-yl)propanoate], the 50% effective concentration (EC50) is 0.5 to 5 µM at Gal4-RORγ-LBD (setting [2]) and < 0.5 µM at RORγ-LBD (RORγ-LBD TR-FRET).
